Values quoted from earlier work, collected in patent US20230172202A1, “INSECT AND NON-INSECT ARTHROPOD PEST REPELLENT COMPOSITIONS AND METHODS” (Livful Inc., priority 2021, published 2023).

How the values were obtained:
[1] = tested on: mosquitos; conditions: 25% active ingredient (IR3535 in ethanol); human subjects, field
[2] = according to the manufacturer (Merck KGaA)

Compound | mean complete protection time (mean CPT) [1] | ideal pH for IR3535 [2]
CCN(CC)C(=O)c1cccc(C)c1 [DEET, N,N-diethyl-m-toluamide] | 5.6 h | 
CCCCN(CCC(=O)OCC)C(C)=O [IR3535®, ethyl butylacetylaminopropionate] | 3.0 h | 6.0-6.5
